#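 A five-concentration, 48-hour dose response in 96-well plates underlies each endpoint, interpolated linearly between surrounding concentrations. GI50 marks 50% less growth. TGI marks complete inhibition of growth.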
# Tests used:
# Assay in all cases: NCI anticancer screen, dose series, 48 h
# OVCAR-4 ovarian = test system: OVCAR-4 ovarian
# HT29 colon = test system: HT29 colon
# SK-MEL-28 melanoma = test system: SK-MEL-28 melanoma
# KM12 colon = test system: KM12 colon
# MOLT-4 leukemia = test system: MOLT-4 leukemia
# IGROV1 ovarian = test system: IGROV1 ovarian
# SN12C renal = test system: SN12C renal
# SK-MEL-5 melanoma = test system: SK-MEL-5 melanoma
# SR leukemia = test system: SR leukemia
# NCI-H23 lung = test system: NCI-H23 lung
# TK-10 renal = test system: TK-10 renal
# OVCAR-5 ovarian = test system: OVCAR-5 ovarian
# OVCAR-3 ovarian = test system: OVCAR-3 ovarian
# SF-268 CNS = test system: SF-268 CNS
# NCI-H460 lung = test system: NCI-H460 lung
# M14 melanoma = test system: M14 melanoma
# 786-0 renal = test system: 786-0 renal
# T-47D breast = test system: T-47D breast
# SK-OV-3 ovarian = test system: SK-OV-3 ovarian
# MCF7 breast = test system: MCF7 breast
# UACC-257 melanoma = test system: UACC-257 melanoma
# HCC-2998 colon = test system: HCC-2998 colon
# SF-295 CNS = test system: SF-295 CNS
# RPMI-8226 leukemia = test system: RPMI-8226 leukemia
# ACHN renal = test system: ACHN renal
# HOP-62 NSCLC = test system: HOP-62 NSCLC
# EKVX NSCLC = test system: EKVX NSCLC
# OVCAR-8 ovarian = test system: OVCAR-8 ovarian
# CAKI-1 renal = test system: CAKI-1 renal
# HCT-116 colon = test system: HCT-116 colon
# RXF 393 renal = test system: RXF 393 renal
# MDA-MB-435 = test system: MDA-MB-435
# SNB-75 CNS = test system: SNB-75 CNS
# DU-145 prostate = test system: DU-145 prostate
# U251 CNS = test system: U251 CNS
# HCT-15 colon = test system: HCT-15 colon
# UACC-62 melanoma = test system: UACC-62 melanoma
# SNB-19 CNS = test system: SNB-19 CNS
# A549 NSCLC = test system: A549 NSCLC
# LOX IMVI melanoma = test system: LOX IMVI melanoma
# PC-3 prostate = test system: PC-3 prostate
# SK-MEL-2 melanoma = test system: SK-MEL-2 melanoma
# HS 578T breast = test system: HS 578T breast
# BT-549 breast = test system: BT-549 breast
# COLO 205 colon = test system: COLO 205 colon
# UO-31 renal = test system: UO-31 renal
# MALME-3M melanoma = test system: MALME-3M melanoma
# HOP-92 NSCLC = test system: HOP-92 NSCLC
# NCI/ADR-RES ovarian = test system: NCI/ADR-RES ovarian
# NCI-H522 lung = test system: NCI-H522 lung
# MDA-MB-231 breast = test system: MDA-MB-231 breast
# A498 renal = test system: A498 renal
# SW-620 colon = test system: SW-620 colon
# HL-60(TB) leukemia = test system: HL-60(TB) leukemia
# NCI-H226 lung = test system: NCI-H226 lung
# CCRF-CEM leukemia = test system: CCRF-CEM leukemia
# SF-539 CNS = test system: SF-539 CNS
# K-562 leukemia = test system: K-562 leukemia
smiles,measurement,setting,value
c1ccc(CSSSCc2ccccc2)cc1,TGI,OVCAR-4 ovarian,38 µM
same,TGI,HT29 colon,19.6 µM
same,TGI,SK-MEL-28 melanoma,> 100 µM
same,TGI,KM12 colon,> 100 µM
same,TGI,MOLT-4 leukemia,> 100 µM
same,TGI,IGROV1 ovarian,> 90.9 µM
same,TGI,SN12C renal,18 µM
same,TGI,SK-MEL-5 melanoma,15.3 µM
same,TGI,SR leukemia,87.3 µM
same,TGI,NCI-H23 lung,> 48.5 µM
same,TGI,TK-10 renal,> 73.9 µM
same,TGI,OVCAR-5 ovarian,41.2 µM
same,TGI,OVCAR-3 ovarian,2.98 µM
same,TGI,SF-268 CNS,31.4 µM
same,TGI,NCI-H460 lung,16.2 µM
same,TGI,M14 melanoma,> 100 µM
same,TGI,786-0 renal,12.8 µM
same,TGI,T-47D breast,> 64.5 µM
same,TGI,SK-OV-3 ovarian,22.9 µM
same,TGI,MCF7 breast,> 42.1 µM
same,TGI,UACC-257 melanoma,> 95.4 µM
same,TGI,HCC-2998 colon,17.8 µM
same,TGI,SF-295 CNS,49.8 µM
same,TGI,RPMI-8226 leukemia,10.8 µM
same,TGI,ACHN renal,29.1 µM
same,TGI,HOP-62 NSCLC,5.03 µM
same,TGI,EKVX NSCLC,> 100 µM
same,TGI,OVCAR-8 ovarian,> 41.2 µM
same,TGI,CAKI-1 renal,22.6 µM
same,TGI,HCT-116 colon,12.1 µM
same,TGI,RXF 393 renal,14.8 µM
same,TGI,MDA-MB-435,2.83 µM
same,TGI,SNB-75 CNS,39.4 µM
same,TGI,DU-145 prostate,4.97 µM
same,TGI,U251 CNS,17.1 µM
same,TGI,HCT-15 colon,> 100 µM
same,TGI,UACC-62 melanoma,16.1 µM
same,TGI,SNB-19 CNS,> 100 µM
same,TGI,A549 NSCLC,> 100 µM
same,TGI,LOX IMVI melanoma,17.4 µM
same,TGI,PC-3 prostate,> 100 µM
same,TGI,SK-MEL-2 melanoma,8.36 µM
same,TGI,HS 578T breast,> 31 µM
same,TGI,BT-549 breast,19.8 µM
same,TGI,COLO 205 colon,11.6 µM
same,TGI,UO-31 renal,37.1 µM
same,TGI,MALME-3M melanoma,> 100 µM
same,TGI,HOP-92 NSCLC,> 92.7 µM
same,TGI,NCI/ADR-RES ovarian,9.78 µM
same,TGI,NCI-H522 lung,3.33 µM
same,TGI,MDA-MB-231 breast,23.7 µM
same,TGI,A498 renal,> 100 µM
same,TGI,SW-620 colon,> 51.9 µM
same,TGI,HL-60(TB) leukemia,3.22 µM
c1ccc(CSc2nnc3c4c5c(sc4nc(-c4cccnc4)n23)CCCCCC5)cc1,GI50,OVCAR-4 ovarian,2.08 µM
same,TGI,OVCAR-4 ovarian,10.2 µM
same,GI50,HT29 colon,2.78 µM
same,TGI,HT29 colon,10.9 µM
same,GI50,SK-MEL-28 melanoma,3.35 µM
same,TGI,SK-MEL-28 melanoma,14.1 µM
same,GI50,KM12 colon,2.6 µM
same,TGI,KM12 colon,10.5 µM
same,GI50,MOLT-4 leukemia,3 µM
same,TGI,MOLT-4 leukemia,11.3 µM
same,GI50,IGROV1 ovarian,4.18 µM
same,TGI,IGROV1 ovarian,19.2 µM
same,GI50,SN12C renal,2.99 µM
same,TGI,SN12C renal,11.8 µM
same,GI50,SK-MEL-5 melanoma,1.37 µM
same,TGI,SK-MEL-5 melanoma,2.68 µM
same,GI50,SR leukemia,2.59 µM
same,TGI,SR leukemia,10.1 µM
same,GI50,NCI-H23 lung,2.74 µM
same,TGI,NCI-H23 lung,8.33 µM
same,GI50,TK-10 renal,3.83 µM
same,TGI,TK-10 renal,12.6 µM
same,GI50,OVCAR-5 ovarian,4.99 µM
same,TGI,OVCAR-5 ovarian,17.5 µM
same,GI50,OVCAR-3 ovarian,2.86 µM
same,TGI,OVCAR-3 ovarian,12.4 µM
same,GI50,SF-268 CNS,4.57 µM
same,TGI,SF-268 CNS,17.8 µM
same,GI50,NCI-H226 lung,2.03 µM
same,TGI,NCI-H226 lung,9.96 µM
same,GI50,NCI-H460 lung,2.97 µM
same,TGI,NCI-H460 lung,11.1 µM
same,GI50,M14 melanoma,3.75 µM
same,TGI,M14 melanoma,16.9 µM
same,GI50,786-0 renal,3.63 µM
same,TGI,786-0 renal,14.2 µM
same,GI50,T-47D breast,0.495 µM
same,TGI,T-47D breast,12.3 µM
same,GI50,SK-OV-3 ovarian,2.75 µM
same,TGI,SK-OV-3 ovarian,9.54 µM
same,GI50,MCF7 breast,2.64 µM
same,TGI,MCF7 breast,11.2 µM
same,GI50,UACC-257 melanoma,2.12 µM
same,TGI,UACC-257 melanoma,8.74 µM
same,GI50,HCC-2998 colon,4.21 µM
same,TGI,HCC-2998 colon,15.3 µM
same,GI50,SF-295 CNS,2.8 µM
same,TGI,SF-295 CNS,11.8 µM
same,GI50,RPMI-8226 leukemia,1.87 µM
same,TGI,RPMI-8226 leukemia,12.5 µM
same,GI50,ACHN renal,2.98 µM
same,TGI,ACHN renal,10.5 µM
same,GI50,HOP-62 NSCLC,2.96 µM
same,TGI,HOP-62 NSCLC,12.3 µM
same,GI50,OVCAR-8 ovarian,2.86 µM
same,TGI,OVCAR-8 ovarian,13.2 µM
same,GI50,CAKI-1 renal,3.43 µM
same,TGI,CAKI-1 renal,15.7 µM
same,GI50,HCT-116 colon,2.77 µM
same,TGI,HCT-116 colon,11.3 µM
same,GI50,RXF 393 renal,2.79 µM
same,TGI,RXF 393 renal,13.1 µM
same,GI50,MDA-MB-435,2.61 µM
same,TGI,MDA-MB-435,9.88 µM
same,GI50,SNB-75 CNS,2.58 µM
same,TGI,SNB-75 CNS,10.3 µM
same,GI50,DU-145 prostate,3.42 µM
same,TGI,DU-145 prostate,14.4 µM
same,GI50,U251 CNS,2.2 µM
same,TGI,U251 CNS,12 µM
same,GI50,HCT-15 colon,4.51 µM
same,TGI,HCT-15 colon,17 µM
same,GI50,UACC-62 melanoma,1.91 µM
same,TGI,UACC-62 melanoma,7.23 µM
same,GI50,SNB-19 CNS,3.96 µM
same,TGI,SNB-19 CNS,16.2 µM
same,GI50,A549 NSCLC,2.8 µM
same,TGI,A549 NSCLC,13.4 µM
same,GI50,LOX IMVI melanoma,3.08 µM
same,TGI,LOX IMVI melanoma,11.1 µM
same,GI50,PC-3 prostate,2.36 µM
same,TGI,PC-3 prostate,10.8 µM
same,GI50,SK-MEL-2 melanoma,2.05 µM
same,TGI,SK-MEL-2 melanoma,6.02 µM
same,GI50,HS 578T breast,3.84 µM
same,TGI,HS 578T breast,28.6 µM
same,GI50,BT-549 breast,2.8 µM
same,TGI,BT-549 breast,9.04 µM
same,GI50,COLO 205 colon,1.55 µM
same,TGI,COLO 205 colon,3.33 µM
same,GI50,UO-31 renal,3.73 µM
same,TGI,UO-31 renal,15.1 µM
same,GI50,MALME-3M melanoma,2.76 µM
same,TGI,MALME-3M melanoma,7.52 µM
same,GI50,CCRF-CEM leukemia,1.11 µM
same,TGI,CCRF-CEM leukemia,15.5 µM
same,GI50,HOP-92 NSCLC,1.7 µM
same,TGI,HOP-92 NSCLC,7.24 µM
same,GI50,NCI/ADR-RES ovarian,14.1 µM
same,TGI,NCI/ADR-RES ovarian,38.1 µM
same,GI50,SF-539 CNS,3.51 µM
same,TGI,SF-539 CNS,12.9 µM
same,GI50,NCI-H522 lung,1.39 µM
same,TGI,NCI-H522 lung,5.07 µM
same,GI50,K-562 leukemia,2.34 µM
same,TGI,K-562 leukemia,10.4 µM
same,GI50,MDA-MB-231 breast,2.18 µM
same,TGI,MDA-MB-231 breast,7.15 µM
same,GI50,A498 renal,2.24 µM
same,GI50,SW-620 colon,3.09 µM
same,TGI,SW-620 colon,13.3 µM
same,GI50,HL-60(TB) leukemia,1.84 µM
same,TGI,HL-60(TB) leukemia,5.27 µM

# Source: PubChem BioAssay (NCI)
